T/C data for 18 compounds are collected here from PubChem BioAssay AID274 (DTP/NCI, 2004).

The test deals with BDF1 mice, Lewis lung carcinoma iv, survival T/C. Kind of test: NCI In Vivo Anticancer Drug Screen. Data for tumor model Lewis Lung Carcinoma (intravenous) in B6D2F1 (BDF1) mice. The settings on record: endpoint: median survival time, higher = longer survival. As to the method: The antitumor activity of compounds was measured in mice bearing transplantable tumors. Survival or tumor size were measured and the results are expressed as the measurement made in the treated group (T) divided by the measurement made in the vehicle treated control group (C). The tumor model used in this assay is Lewis Lung Carcinoma (intravenous) in B6D2F1 (BDF1) mice

Where [1] appears, read: dose: 0.6 mg/kg/injection, schedule: Q04DX003 (ip), vehicle: saline.
Setting [2] is: dose: 1.0 mg/kg/injection, schedule: Q04DX003 (ip), vehicle: saline.
Where [3] appears, read: dose: 216.0 micrograms/kg/injection, schedule: Q01DX009 (ip), vehicle: saline.
Setting [4] is: dose: 3.12 mg/kg/injection, schedule: Q01DX009 (ip), vehicle: saline with Tween-80.
[5] abbreviates: dose: 6.25 mg/kg/injection, schedule: Q01DX009 (ip), vehicle: saline with Tween-80.
The mark [6] stands for this setting: dose: 12.5 mg/kg/injection, schedule: Q01DX009 (ip), vehicle: saline with Tween-80.
The mark [7] stands for this setting: dose: 25.0 mg/kg/injection, schedule: Q01DX009 (ip), vehicle: saline with Tween-80.
Where [8] appears, read: dose: 50.0 mg/kg/injection, schedule: Q01DX009 (ip), vehicle: saline with Tween-80.
Where [9] appears, read: dose: 100.0 mg/kg/injection, schedule: Q01DX009 (ip), vehicle: saline with Tween-80.
Where [10] appears, read: dose: 200.0 mg/kg/injection, schedule: Q01DX009 (ip), vehicle: saline with Tween-80.
Where [11] appears, read: dose: 25.0 mg/kg/injection, schedule: Q01DX009 (ip), vehicle: saline.
Where [12] appears, read: dose: 50.0 mg/kg/injection, schedule: Q01DX009 (ip), vehicle: saline.
[13] abbreviates: dose: 100.0 mg/kg/injection, schedule: Q01DX009 (ip), vehicle: saline.
Where [14] appears, read: dose: 1.0 mg/kg/injection, schedule: Q01DX009 (ip), vehicle: saline with Tween-80.
[15] abbreviates: dose: 2.0 mg/kg/injection, schedule: Q01DX009 (ip), vehicle: saline with Tween-80.
The mark [16] stands for this setting: dose: 4.0 mg/kg/injection, schedule: Q01DX009 (ip), vehicle: saline with Tween-80.
Setting [17] is: dose: 8.0 mg/kg/injection, schedule: Q01DX009 (ip), vehicle: saline with Tween-80.
The mark [18] stands for this setting: dose: 16.0 mg/kg/injection, schedule: Q01DX009 (ip), vehicle: saline with Tween-80.
[19] abbreviates: dose: 12.5 mg/kg/injection, schedule: Q01DX009 (ip), vehicle: saline.

Each structure is given as a SMILES string. Values joined by “and” are separate entries in the source; they are usually repeats but may differ in a detail not shown here. Identical values can stand only once. Inconclusive results and toxic doses are left out.

For the compound `COc1cccc2c1C(=O)c1c(O)c3c(c(O)c1C2=O)C[C@@](O)(/C(C)=N\NC(=O)CO)C[C@@H]3OC1CC(N)C(O)C(C)O1` (some centres undefined), the T/C runs as follows: (dose: 0.37 mg/kg/injection, schedule: Q01DX009 (ip), vehicle: saline) 105 % of control; (dose: 0.75 mg/kg/injection, schedule: Q01DX009 (ip), vehicle: saline) 106 % of control; (dose: 1.5 mg/kg/injection, schedule: Q01DX009 (ip), vehicle: saline) 101 % of control; (dose: 3.0 mg/kg/injection, schedule: Q01DX009 (ip), vehicle: saline) 115 % of control; (dose: 6.0 mg/kg/injection, schedule: Q01DX009 (ip), vehicle: saline) 103 % of control; (dose: 12.0 mg/kg/injection, schedule: Q01DX009 (ip), vehicle: saline) 105 % of control.

Regarding `CC[C@]1(O)C[C@H]2CN(CCc3c([nH]c4ccccc34)[C@@](C(=O)OC)(c3cc4c(cc3OC)N(C=O)[C@H]3[C@@](O)(C(=O)OC)[C@H](OC(C)=O)[C@]5(CC)C=CCN6CC[C@]43[C@@H]65)C2)C1`, the T/C reads like this: (dose: 0.36 mg/kg/injection, schedule: Q04DX003 (ip), vehicle: saline) 98 % of control; under setting [1], 105 % of control; under setting [2], 120 % of control; (dose: 130.0 micrograms/kg/injection, schedule: Q01DX009 (ip), vehicle: saline) 106 % of control; under setting [3], 111 % of control.

`CC(C)(C)N1CC1CNC(=O)C(=O)NCC1CN1C(C)(C)C` (centres undefined): the T/C reads like this: (dose: 0.78 mg/kg/injection, schedule: Q01DX009 (ip), vehicle: saline with Tween-80) 111 % of control; (dose: 1.56 mg/kg/injection, schedule: Q01DX009 (ip), vehicle: saline with Tween-80) 105 % of control; under setting [4], 98 % of control; under setting [5], 105 % of control; under setting [6], 117 % of control.

Consider `CN1C(=O)NC(c2ccc(Cl)cc2)(c2ccc(Cl)cc2)C1=O`, for which the T/C is, setting by setting: (dose: 12.5 mg/kg/injection, schedule: Q01DX009 (ip), vehicle: distilled water + Tween-80) 102 % of control; (dose: 25.0 mg/kg/injection, schedule: Q01DX009 (ip), vehicle: distilled water + Tween-80) 124 % of control; (dose: 50.0 mg/kg/injection, schedule: Q01DX009 (ip), vehicle: distilled water + Tween-80) 116 % of control; (dose: 200.0 mg/kg/injection, schedule: Q01DX009 (ip), vehicle: distilled water + Tween-80) 105 % of control.

For the compound `OC1CCCC2CCCNC12` (centres undefined), the T/C is 104 % of control under setting [4]; 100 % of control under setting [5]; 152 % of control under setting [6]; 96 % of control under setting [7]; 99 % of control under setting [8]; 95 % of control under setting [9].

Regarding `CC(=O)N(C)O`, the T/C reads like this: under setting [7], 102 % of control; under setting [8], 90 % of control; under setting [9], 98 % of control; under setting [10], 95 % of control.

In the case of `Nc1ncnc2c1cnn2Cc1ccc(Cl)cc1`, the T/C was 112 % of control under setting [11]; 98 % of control under setting [12]; 158 % of control under setting [9]; 98 % of control under setting [13]; 109 % of control under setting [10].

With `CN(C)CCN1C(=O)c2cccc3cc(N)cc(c23)C1=O`, the T/C is 100 % of control under setting [14]; 100 % of control under setting [15]; 97 % of control under setting [16]; 98 % of control under setting [17]; 116 % of control under setting [18].

Regarding `Cc1ccc2c(c1)C(=O)N(CC[P+](c1ccccc1)(c1ccccc1)c1ccccc1)C2=O`, the T/C is, setting by setting: (dose: 0.78 mg/kg/injection, schedule: Q09DX009 (ip), vehicle: water) 98 % of control; (dose: 1.56 mg/kg/injection, schedule: Q09DX009 (ip), vehicle: water) 89 % of control; (dose: 3.12 mg/kg/injection, schedule: Q09DX009 (ip), vehicle: water) 89 % of control; (dose: 6.25 mg/kg/injection, schedule: Q09DX009 (ip), vehicle: water) 87 % of control; (dose: 12.5 mg/kg/injection, schedule: Q09DX009 (ip), vehicle: water) 97 % of control.

For the compound `C[C@]12CC[C@H]3[C@@H](CC[C@]4(O)C[C@@H](O)CC[C@]34C=O)[C@@]1(O)CC[C@@H]2C1=CC(=O)OC1`, the T/C is 96 % of control under setting [19], 108 % of control under setting [11], 108 % of control under setting [12] and 100 % of control under setting [13].

As for `O=P1(NCCCl)OCCC(OO)N1CCCl` (centres undefined), the T/C was 150 % of control (dose: 69.0 mg/kg/injection, schedule: Q01DX001 (ip), vehicle: Klucel (hydroxypropylcellulose) (HPC)); 117 % of control (dose: 101.0 mg/kg/injection, schedule: Q01DX001 (ip), vehicle: Klucel (hydroxypropylcellulose) (HPC)); 160 % of control (dose: 230.0 mg/kg/injection, schedule: Q01DX001 (ip), vehicle: Klucel (hydroxypropylcellulose) (HPC)).

Turning to `COC1OC(CO)C(O)C(NC(=O)N(C)N=O)C1O` (centres undefined), the T/C under setting [19] is 109 % of control; the T/C under setting [11] was 108 % of control and 115 % of control; the T/C under setting [13] is 123 % of control; the T/C (dose: 200.0 mg/kg/injection, schedule: Q01DX009 (ip), vehicle: saline) was 152 % of control.

Regarding `COC1=C(NC(C)=O)C(=O)c2nc(-c3nc(C(=O)O)c(C)c(-c4ccc(OC)c(OC)c4O)c3N)ccc2C1=O`, the T/C reads like this: (dose: 6.0 mg/kg/injection, schedule: Q01DX009 (ip), vehicle: Klucel (hydroxypropylcellulose) (HPC)) 101 % of control; (dose: 12.0 mg/kg/injection, schedule: Q01DX009 (ip), vehicle: Klucel (hydroxypropylcellulose) (HPC)) 96 % of control; (dose: 25.0 mg/kg/injection, schedule: Q01DX009 (ip), vehicle: Klucel (hydroxypropylcellulose) (HPC)) 98 % of control; (dose: 50.0 mg/kg/injection, schedule: Q01DX009 (ip), vehicle: Klucel (hydroxypropylcellulose) (HPC)) 97 % of control.

Regarding `Nc1ccc(Cl)cc1N`, the T/C under setting [6] was 92 % of control; the T/C under setting [7] is 93 % of control; the T/C under setting [8] is 99 % of control; the T/C under setting [9] is 104 % of control; the T/C under setting [10] is 102 % of control.

On to `CCC1(O)CC2CN(CCc3c([nH]c4ccccc34)C(C(=O)OC)(c3cc4c(cc3OC)N(C)C3C(O)(C(=O)NCCO)C(O)C5(CC)C=CCN6CCC43C65)C2)C1` (centres undefined), for which the T/C was 96 % of control under setting [1]; 101 % of control under setting [2]; 101 % of control (dose: 1.67 mg/kg/injection, schedule: Q04DX003 (ip), vehicle: saline); 111 % of control under setting [3]; 111 % of control (dose: 360.0 micrograms/kg/injection, schedule: Q01DX009 (ip), vehicle: saline).

With `C1OC1CO[C@@H]1CO[C@H]2[C@@H]1OC[C@H]2OCC1CO1` (some centres undefined), the T/C is 113 % of control under setting [19], 100 % of control under setting [11], 123 % of control under setting [12] and 177 % of control under setting [13].

Regarding `S=P(N1CC1)(N1CC1)N1CC1`, the T/C under setting [14] was 106 % of control and 110 % of control and 116 % of control; the T/C under setting [15] is 113 % of control (2×) and 116 % of control; the T/C under setting [16] is 118 % of control and 119 % of control and 123 % of control; the T/C under setting [17] was 100 % of control and 110 % of control; the T/C under setting [18] is 112 % of control.

Turning to `N=C(N)c1ccc(/C=C/c2ccc(C(=N)N)cc2O)cc1`, the T/C is 96 % of control (dose: 3.12 mg/kg/injection, schedule: Q01DX009 (ip), vehicle: water); 101 % of control (dose: 6.25 mg/kg/injection, schedule: Q01DX009 (ip), vehicle: water); 101 % of control (dose: 12.5 mg/kg/injection, schedule: Q01DX009 (ip), vehicle: water); 111 % of control (dose: 25.0 mg/kg/injection, schedule: Q01DX009 (ip), vehicle: water); 115 % of control (dose: 50.0 mg/kg/injection, schedule: Q01DX009 (ip), vehicle: water).
